Data on two compounds can be found in patent US20260053931A1, “MDM2 TARGETING PROTACS” (THE WISTAR INSTITUTE OF ANATOMY AND BIOLOGY, priority 2023, published 2026).

One may read the IC50 as the concentration needed to halve the response being measured.

For data set [1], the target named is T1, Mdm2 (Homo sapiens, UniProt Q00987). The experiment in a line: Mdm2 HTRF binding assay (Table 2). The text has this: An HTRF binding assay was developed using a biotinylated peptide containing the Mdm2-binding domain of p53 and a recombinant GST-tagged N-terminus of Mdm2 containing the p53-binding domain. HTRF is a proximity-based fluorescence energy transfer (FRET) assay that takes advantage of the unique time-resolved fluorescence of the lanthanide chelates, such as terbium and europium. HTRF IC50 values are provided for all key compounds (FIG. 13C, FIG. 19B, and Table 2).
Target sequence in this assay (Q00987 26-109 limits assumed): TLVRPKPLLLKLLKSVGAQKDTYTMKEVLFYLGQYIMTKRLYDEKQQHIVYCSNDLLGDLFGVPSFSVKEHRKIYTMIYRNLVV
Background: In TR-FRET formats the signal depends on donor and acceptor labels being close together.

Data set [2] concerns the target T2, human cereblon (CRBN) complex (Homo sapiens, UniProt Q96SW2).
T2 construct: purchased R & D systems
The data set can be described thus: HTRF binding assay for Cereblon (Table 2). The text has this:
Biochemical assays in 384-well format have established to assess the binding of newly synthesized PROTACs to the appropriate E3 ligase using HTRF technology. In these assays an anti-HIS antibody conjugated to terbium was used as the donor fluor, and either a Cy5 labeled small molecule probe, or a biotinylated peptide that is bound to a streptavidin acceptor.
Cereblon: Recombinant human cereblon (CRBN) complex, including CUL4A, RBX1, DDB1 and CRBN is purchased from R & D systems. This four-member protein complex has an N-terminal HIS tag on the CUL4A subunit. The CRBN complex is diluted in assay buffer containing anti-HIS-Tb Cryptate Gold (CisBio) and is added to low volume 384-well plates. Test compounds in 100% DMSO are added to the plates followed by the Cy5-labeled lenolidamide probe. After 1 hour the HTRF signal is measured on the Envision. Data are normalized to % inhibition. The typical signal-to-noise is 5:1. Bi-functional molecules containing the Cereblon ligands are tested in TABLE 2 (see YX-02-041).

A short description of data set [3]: Mouse pharmacokinetic study, intraperitoneal. In kind it is in vivo. To be noted: single 10 mg/kg intraperitoneal dose, 0.25-6 h. The method, then: To translate cell-based activity to in vivo efficacy, the Mdm2 PROTACs were evaluated for metabolic stability and plasma compound levels after IP injection in the mouse. Mouse liver microsome stability was obtained for lead compounds (Alliance Pharma, Inc; Malvern PA) as a predictive measure for suitable exposure in a mouse pharmacokinetic study. In brief, test compounds (0.5 μM) are incubated with liver microsomes ([…]) and an NADPH-regenerating system (cofactor solution) and samples are taken at various timepoints, quenched with an acetonitrile solution containing an internal standard, then analyzed by LC-MS/MS. […] Mouse pharmacokinetic studies for YX-02-030 and YX-02-288 were completed. Mouse plasma levels were evaluated following intraperitoneal (10 mg/kg) administration. Plasma was collected at timepoints 0.25 h, 0.5 h, 1 h, 2 h, 4 h and 6 h after Mdm2 PROTAC injection. Plasma was deproteinized and analyzed for compound using LC-MS/MS methods. Three mice were used for each time point and one control animal (Alliance Pharma Inc, Malvern PA).

In another data set the test system is Raji. The data set can be described thus: Cell death of other cancer cell lines: Raji. In kind it is cell-based. To be noted: Homo sapiens, Burkitt lymphoma, values may change up to ±1-2 μM depending on the cell density. As for the experimental part:
(§1) The PROTACs prepared herein were tested for their use in other cancer cell lines to determine activity in multiple different types of cancer.

In a further data set the test system is Ramos. The experiment in a line: Cell death of other cancer cell lines: Ramos. In kind it is cell-based. The settings on record: Homo sapiens, Burkitt lymphoma. The method, then: as §1
Another data set relates to SU-DHL-6. The data set can be described thus: Cell death of other cancer cell lines: SU-DHL-6. In kind it is cell-based. The settings on record: Homo sapiens; SU-DHL-6, Diffuse large B cell lymphoma. The method, then: as §1
The test system of another data set is HH. The experiment in a line: Cell death of other cancer cell lines: HH. The settings on record: Homo sapiens, T cell lymphoma. The format is cell-based. The method, then:
as §1

The next data set relates to Hut-78. The data set can be described thus: Cell death of other cancer cell lines: Hut-78. In kind it is cell-based. The settings on record: Homo sapiens, HuT78; Hut-78, T cell lymphoma. The method, then: as §1
The subject of the next data set is SEM cells. The experiment in a line: Cell death of other cancer cell lines: SEM. The format is cell-based. The settings on record: Homo sapiens, B-ALL. The method, then: as §1
A further data set concerns RS4; 11. The data set can be described thus: Cell death of other cancer cell lines: RS4; 11. In kind it is cell-based. To be noted: Homo sapiens, 11, B-ALL. The method, then:
as §1

Another data set relates to MOLT1. The experiment in a line: Cell death of other cancer cell lines: MOLT1. In kind it is cell-based. The settings on record: Homo sapiens; MOLT1, T-ALL. The method, then: as §1
The next data set deals with SUP-T1. The experiment in a line: Cell death of other cancer cell lines: SUP-T1. In kind it is cell-based. To be noted: Homo sapiens; SUP-T1, T-ALL. The method, then: as §1
The subject of another data set is H1299. The data set can be described thus: Cell death of other cancer cell lines: H1299. The format is cell-based. To be noted: Homo sapiens, NCI-H1299; H1299, Lung adenocarcinoma. The method, then: as §1
A further data set has as its system PC9. The data set can be described thus: Cell death of other cancer cell lines: PC9. In kind it is cell-based. To be noted: Homo sapiens, PC-9; PC9, Lung adenocarcinoma. The method, then:
as §1

Another data set concerns SKOV3. The data set can be described thus: Cell death of other cancer cell lines: SKOV3. To be noted: Homo sapiens, SK-OV-3; SKOV3, Ovarian. In kind it is cell-based. The method, then:
as §1

The subject of another data set is OVCAR4. The experiment in a line: Cell death of other cancer cell lines: OVCAR4. The format is cell-based. The settings on record: Homo sapiens, OVCAR-4; OVCAR4, Ovarian. As for the experimental part:
as §1

Another data set relates to KPCA. The experiment in a line: Cell death of other cancer cell lines: KPCA. The settings on record: Ovarian, Mouse. The format is cell-based. The method, then:
as §1

Data set [4] addresses T1, Mdm2. The experiment in a line: In-Cell Western, mut p53 MDA-MB-231 cell line. The format is cell-based. The arrangement: endogenous in cells; host or cells: MCF7 (A8); MDA-MB-231 (A9). The settings on record: mutant p53 MDA-MB-231. The method, then: Cells were seeded at decreasing cell number from 15K cells to 2K cells. The Mdm2 primary antibody was tested at 1:200 and 1:300 dilution. The secondary antibody conjugated to IRDye800CW was used with 1:800 dilution, and CellTag 700 Stain was used at 1:1000 dilution as manufacture recommended. The linearity of cell number versus signal was generated with Prism. The signal over background ratio was also calculated.
The potential PROTACs were evaluated in the wt p53 MCF7 cell line and in the mut p53 MDA-MB-231 cell line. Importantly these were compared to MD-224, which was recently reported to potently degrade Mdm2 in RS4; 11 leukemia cells (Li et al., 2019). Assay linearity was performed confirming a strong 4-fold signal to noise in the assay. A series of bi-functional molecules were then treated and evaluated for protein level in the assay over time from 2 h-48 h. […] In this wt p53 cancer cell line the stabilization of p53 (FIG. 15B), and subsequent p53-mediated transcriptional upregulation of Mdm2 make it difficult to observe degradation. […] These compounds were evaluated in the mutant p53 cancer cells. […] In this cell line, it takes approximately 16-24 h to detect the degradation. […] The difference in the molecules is that MD-224 utilizes a CRBN recruiting ligand.
Target sequence in this assay (Q00987 whole entry, the tested form may be a part): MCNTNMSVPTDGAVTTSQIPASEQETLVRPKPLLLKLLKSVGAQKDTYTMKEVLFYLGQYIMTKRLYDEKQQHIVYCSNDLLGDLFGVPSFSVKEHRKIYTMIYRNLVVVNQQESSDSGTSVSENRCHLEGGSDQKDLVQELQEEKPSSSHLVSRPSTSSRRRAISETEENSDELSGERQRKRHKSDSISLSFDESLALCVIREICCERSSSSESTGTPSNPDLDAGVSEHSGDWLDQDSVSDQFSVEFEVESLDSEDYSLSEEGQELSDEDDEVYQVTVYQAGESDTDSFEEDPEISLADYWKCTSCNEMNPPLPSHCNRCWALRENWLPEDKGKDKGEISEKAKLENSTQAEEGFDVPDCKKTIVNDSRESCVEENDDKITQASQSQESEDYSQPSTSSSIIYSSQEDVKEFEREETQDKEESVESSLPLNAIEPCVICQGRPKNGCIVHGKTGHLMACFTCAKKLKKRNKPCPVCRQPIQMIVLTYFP

“Also recorded” adds a separate entry of the source. Where two headings read alike, the source gives them in different places.

T2 sequence (Q96SW2 whole entry): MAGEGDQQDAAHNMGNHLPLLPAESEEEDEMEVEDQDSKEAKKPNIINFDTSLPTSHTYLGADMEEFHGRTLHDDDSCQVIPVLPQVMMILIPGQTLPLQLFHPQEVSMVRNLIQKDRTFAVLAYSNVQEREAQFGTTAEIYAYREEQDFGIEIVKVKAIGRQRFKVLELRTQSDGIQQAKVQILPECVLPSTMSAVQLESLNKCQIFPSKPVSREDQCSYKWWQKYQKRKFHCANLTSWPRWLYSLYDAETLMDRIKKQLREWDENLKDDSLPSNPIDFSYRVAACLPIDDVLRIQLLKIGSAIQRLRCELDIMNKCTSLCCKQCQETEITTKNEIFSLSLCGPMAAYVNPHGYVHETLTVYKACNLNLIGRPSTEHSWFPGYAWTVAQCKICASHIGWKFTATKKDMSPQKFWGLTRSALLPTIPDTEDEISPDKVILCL
T2 sequence (Q16531 whole entry partner): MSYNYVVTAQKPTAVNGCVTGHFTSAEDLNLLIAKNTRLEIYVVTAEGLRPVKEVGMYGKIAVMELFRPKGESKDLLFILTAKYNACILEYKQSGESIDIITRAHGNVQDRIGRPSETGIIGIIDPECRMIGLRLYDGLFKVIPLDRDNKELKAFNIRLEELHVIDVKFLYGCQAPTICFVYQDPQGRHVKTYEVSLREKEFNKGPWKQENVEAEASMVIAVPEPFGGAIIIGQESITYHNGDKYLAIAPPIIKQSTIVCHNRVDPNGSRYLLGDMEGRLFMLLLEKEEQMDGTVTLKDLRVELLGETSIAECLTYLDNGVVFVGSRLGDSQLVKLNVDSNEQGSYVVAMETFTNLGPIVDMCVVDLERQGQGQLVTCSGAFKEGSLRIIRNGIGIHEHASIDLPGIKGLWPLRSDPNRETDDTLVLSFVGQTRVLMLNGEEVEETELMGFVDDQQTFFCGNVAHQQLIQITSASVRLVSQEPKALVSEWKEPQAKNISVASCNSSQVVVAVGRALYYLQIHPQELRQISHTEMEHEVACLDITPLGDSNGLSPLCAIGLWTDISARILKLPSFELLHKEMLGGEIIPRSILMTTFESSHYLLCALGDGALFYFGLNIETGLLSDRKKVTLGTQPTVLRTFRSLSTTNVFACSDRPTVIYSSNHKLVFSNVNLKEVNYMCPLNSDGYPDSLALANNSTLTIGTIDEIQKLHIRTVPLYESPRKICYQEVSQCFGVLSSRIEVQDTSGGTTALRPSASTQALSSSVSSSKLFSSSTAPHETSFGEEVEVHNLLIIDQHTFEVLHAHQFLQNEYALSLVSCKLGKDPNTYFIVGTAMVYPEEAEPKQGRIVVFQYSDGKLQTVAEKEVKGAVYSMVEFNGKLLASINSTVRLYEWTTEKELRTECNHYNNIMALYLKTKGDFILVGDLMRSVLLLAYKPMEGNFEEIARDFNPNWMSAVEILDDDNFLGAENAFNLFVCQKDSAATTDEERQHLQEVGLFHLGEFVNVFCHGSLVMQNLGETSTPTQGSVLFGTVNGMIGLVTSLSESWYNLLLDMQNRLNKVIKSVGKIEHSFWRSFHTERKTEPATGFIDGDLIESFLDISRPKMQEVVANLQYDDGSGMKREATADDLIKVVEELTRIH
T2 sequence (Q13619 whole entry partner): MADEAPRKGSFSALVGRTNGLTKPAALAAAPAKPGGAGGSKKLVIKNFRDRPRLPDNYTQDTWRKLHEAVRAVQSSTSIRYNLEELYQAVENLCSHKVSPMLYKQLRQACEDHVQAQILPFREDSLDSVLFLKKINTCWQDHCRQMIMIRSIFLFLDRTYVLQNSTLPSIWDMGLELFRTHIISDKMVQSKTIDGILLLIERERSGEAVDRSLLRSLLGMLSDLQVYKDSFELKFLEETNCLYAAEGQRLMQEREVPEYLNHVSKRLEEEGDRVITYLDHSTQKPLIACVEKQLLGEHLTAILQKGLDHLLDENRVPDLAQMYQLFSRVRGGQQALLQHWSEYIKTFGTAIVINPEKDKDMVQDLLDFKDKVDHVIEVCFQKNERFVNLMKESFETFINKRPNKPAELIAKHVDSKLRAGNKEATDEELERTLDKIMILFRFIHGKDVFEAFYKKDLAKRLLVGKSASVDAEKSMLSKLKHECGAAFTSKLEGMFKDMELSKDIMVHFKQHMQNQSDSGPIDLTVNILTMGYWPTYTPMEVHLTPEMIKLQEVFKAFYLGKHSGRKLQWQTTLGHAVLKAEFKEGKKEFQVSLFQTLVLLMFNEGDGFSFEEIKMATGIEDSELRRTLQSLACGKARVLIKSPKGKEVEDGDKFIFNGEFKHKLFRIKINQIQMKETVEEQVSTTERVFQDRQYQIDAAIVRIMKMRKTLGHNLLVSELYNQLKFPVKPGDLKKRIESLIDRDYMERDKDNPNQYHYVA
T2 sequence (P62877 whole entry partner): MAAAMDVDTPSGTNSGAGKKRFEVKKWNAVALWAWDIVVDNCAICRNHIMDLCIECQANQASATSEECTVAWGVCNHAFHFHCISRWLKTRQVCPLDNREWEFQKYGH

Take `CCOc1cc(C(C)(C)C)ccc1C1=N[C@](C)(c2ccc(Cl)cc2)[C@](C)(c2ccc(Cl)cc2)N1C(=O)N1CCN(CC(=O)NCCOCCOCCOCC(=O)N[C@H](C(=O)N2C[C@H](O)C[C@H]2C(=O)NCc2ccc(-c3scnc3C)cc2)C(C)(C)C)CC1` (racemic) [YX-02-030]: the IC50 at Mdm2 [1] was 0.014 µM; in data set [2], over 10 µM; with Raji, 2.8 µM; in the data set on Ramos, 3.1 µM; in the data set on SU-DHL-6 it was 3.6 µM; in the data set with HH, 6.3 µM. Moreover, the IC50 with Hut-78 was determined as 9 µM; in the data set on SEM cells, 3.2 µM; in the data set with RS4; 11, 1.9 µM; in the data set with MOLT1, 2.6 µM; with SUP-T1 it was 5.7 µM; in the data set on H1299 it was 4.2 µM. Besides, the IC50 in the data set on PC9 turned out to be 4.5 µM; in the data set with SKOV3, 5.7 µM; in the data set with OVCAR4, 4.6 µM; with KPCA, 2.9 µM. In addition, the “in vivo plasma levels” value in [3] (10 mg/kg) is on record as “prolonged in vivo plasma exposure; also recorded: plasma levels stable over 6 hours”. Moreover, on Mdm2 [4], the Mdm2 degradation result is “degrade Mdm2”.
As to `CCOc1cc(C(C)(C)C)ccc1C1=N[C@](C)(c2ccc(Cl)cc2)[C@](C)(c2ccc(Cl)cc2)N1C(=O)N1CCN(CC(=O)NCCCNC(=O)COc2ccc3c(c2)CN(C(=O)[C@H](NC(=O)[C@@H](C)NC)C(C)(C)C)[C@@H](C(=O)N[C@H]2CCCc4ccccc42)C3)CC1` [YX-02-228, (R)-7-(2-((3-(2-(4-((4R,5S)-2-(4-(tert-butyl)-2-ethoxyphenyl)-4,5-bis(4-chlorophenyl)-4,5-dimethyl-4,5-dihydro-1H-imidazole-1-carbonyl)piperazin-1-yl)acetamido)propyl)amino)-2-oxoethoxy)-2-((R)-3,3-dimethyl-2-((R)-2-(methylamino)propanamido)butanoyl)-N-((S)-1,2,3,4-tetrahydronaphthalen-1-yl)-1,2,3,4-tetrahydroisoquinoline-3-carboxamide], the IC50 at Mdm2 [1] (read-out: Mdm2 HTRF IC50) was 0.013 µM; in data set [2], over 10 µM; with Raji, 5.9 µM; in the data set with Ramos it was 5.5 µM; in the data set on SU-DHL-6, 2.9 µM; in the data set on HH, 5.5 µM. Besides, the concentration for half-maximal inhibition (IC50) with Hut-78 was 8.8 µM; in the data set with SEM cells it was 4.2 µM; with RS4; 11 it was 2.5 µM; in the data set on MOLT1 it was 2.7 µM; in the data set on SUP-T1, 6 µM; in the data set on H1299, 5.3 µM. For the same compound, the IC50 in the data set on PC9 was 4.6 µM; with SKOV3, 3.2 µM; in the data set on OVCAR4 it was 4.8 µM; with KPCA, 3.4 µM. In data set [3], the “in vivo plasma levels” value is given as “prolonged in vivo plasma exposure”. Besides, at Mdm2 [4], the Mdm2 degradation entry is “degrade Mdm2”.
